Laboratory results reported in the supplement of paper PMC10307832.

What was measured:
Experiment in all cases: relative viability (nuclei count vs DMSO), 5 days (fraction); higher = more cells survive
Palbociclib + Navitoclax = compound: CC(=O)c1c(C)c2cnc(Nc3ccc(N4CCNCC4)cn3)nc2n(C2CCCC2)c1=O [Palbociclib] + CC1(C)CCC(c2ccc(Cl)cc2)=C(CN2CCN(c3ccc(C(=O)NS(=O)(=O)c4ccc(N[C@H](CCN5CCOCC5)CSc5ccccc5)c(S(=O)(=O)C(F)(F)F)c4)cc3)CC2)C1 [Navitoclax] (partner 0.5 µM)
Procedure, shortened: (§1)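 Relative viability equals treated-well nuclei counts divided by vehicle-well nuclei counts. Counts came from 4× images of lung cancer cell lines grown in 1536-well plates for 5 days after pin-tool dosing on the day after seeding. Dosing used one drug alone or a fixed anchor-drug dose plus five library-drug doses (not always all listed) in √10 steps, and values are medians of duplicate plates.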

Palbociclib + Tozasertib = compound: CC(=O)c1c(C)c2cnc(Nc3ccc(N4CCNCC4)cn3)nc2n(C2CCCC2)c1=O [Palbociclib] + Cc1cc(Nc2cc(N3CCN(C)CC3)nc(Sc3ccc(NC(=O)C4CC4)cc3)n2)n[nH]1 [Tozasertib] (partner 0.1 µM)
Procedure, shortened: as §1

Palbociclib + Phenformin = compound: CC(=O)c1c(C)c2cnc(Nc3ccc(N4CCNCC4)cn3)nc2n(C2CCCC2)c1=O [Palbociclib] + N=C(N)NC(=N)NCCc1ccccc1 [Phenformin] (partner 250 µM)
Procedure, shortened: as §1

Palbociclib + AZD7762 = compound: CC(=O)c1c(C)c2cnc(Nc3ccc(N4CCNCC4)cn3)nc2n(C2CCCC2)c1=O [Palbociclib] + NC(=O)Nc1cc(-c2cccc(F)c2)sc1C(=O)N[C@H]1CCCNC1 [AZD7762] (partner 0.2 µM)
Procedure, shortened: as §1

Cell Line	relative viability (Palbociclib + Navitoclax; first compound 0.01 µM)	relative viability (Palbociclib + Navitoclax; first compound 0.03162 µM)	relative viability (Palbociclib + Navitoclax; first compound 0.1 µM)	relative viability (Palbociclib + Navitoclax; first compound 0.3162 µM)	relative viability (Palbociclib + Navitoclax; first compound 1 µM)	relative viability (Palbociclib + Tozasertib; first compound 0.01 µM)	relative viability (Palbociclib + Tozasertib; first compound 0.03162 µM)	relative viability (Palbociclib + Tozasertib; first compound 0.1 µM)	relative viability (Palbociclib + Tozasertib; first compound 0.3162 µM)	relative viability (Palbociclib + Tozasertib; first compound 1 µM)	relative viability (Palbociclib + Phenformin; first compound 0.01 µM)	relative viability (Palbociclib + Phenformin; first compound 0.03162 µM)	relative viability (Palbociclib + Phenformin; first compound 0.1 µM)	relative viability (Palbociclib + Phenformin; first compound 0.3162 µM)	relative viability (Palbociclib + Phenformin; first compound 1 µM)	relative viability (Palbociclib + AZD7762; first compound 0.01 µM)	relative viability (Palbociclib + AZD7762; first compound 0.03162 µM)	relative viability (Palbociclib + AZD7762; first compound 0.1 µM)	relative viability (Palbociclib + AZD7762; first compound 0.3162 µM)	relative viability (Palbociclib + AZD7762; first compound 1 µM)
201T	1.22	1.2	1.08	1.08	1.01	0.984	0.906	0.914	0.797	0.614	0.469	0.359	0.359	0.381	0.311	0.573	0.475	0.905	0.751	0.633
PC-14	1.14	0.932	0.908	0.877	0.605	0.589		0.523	0.55	0.4	0.817		0.549	0.528	0.282	0.453	0.349	0.277	0.289	0.16
NCI-H322M	1.14	1.31	1.03	0.964	0.808	0.471	0.448	0.403	0.412	0.343	0.741	0.605	0.553	0.502	0.409	0.59	0.572	0.524	0.507	0.451
HOP-62	0.959	0.68	0.893	0.86	0.625	0.368		0.344	0.347	0.338	0.642		0.644	0.502	0.47	0.334		0.389	0.501	0.355
NCI-H1755	1.03	0.974	0.876	0.818	0.715	0.578	0.596	0.558	0.506	0.506	0.626	0.433	0.495	0.53	0.405	0.476	0.402	0.436	0.451	0.421
HCC-44	0.948	0.953	1.03	0.99	1.02	0.871	0.781	1.1	1.1	1.11	0.234		0.171	0.223	0.204	1.03	0.98	0.97	0.96	1.01
LK-2	1.04		0.651	0.819	0.843	0.167		0.15	0.196	0.167	0.507		0.305	0.309	0.38	0.472	0.297	0.374	0.338	0.303
NCI-H2085	1.1	1.04	0.897	0.93	0.776	0.84	0.701	0.689	0.635	0.523	0.667	0.555	0.616	0.592	0.399	1.06	0.912	0.942	0.76	0.473
NCI-H647	1.33	0.92	0.759	0.93	0.738	0.272	0.286	0.266	0.465	0.435	0.639	0.382	0.379	0.464	0.257	0.645	0.3	0.368	0.326	0.197
NCI-H1944	1.03	1.06	0.878	1.03	0.987	0.254	0.242	0.293	0.245	0.229	0.206	0.172	0.182	0.174	0.165	0.557	0.44	0.504	0.428	0.375
ChaGo-K-1	1.22	0.463	1.08	1.09	1.18	0.218	0.21	0.25	0.225	0.223	0.484	0.376	0.503	0.458	0.524	0.885		0.867	0.905	0.861
LC-2-ad	0.555		0.402	0.383	0.337	0.461		0.453	0.428	0.439	0.573		0.523	0.414	0.383	0.886	0.692	0.734	0.702	0.513
HCC-827	1.03	1.01	0.99	0.953	0.769	0.424	0.4	0.358	0.389	0.366	0.41	0.285	0.319	0.384	0.289	0.245	0.211	0.202	0.203	0.168
HCC-15	0.672		0.622	0.641	0.529	0.454		0.38	0.372	0.343	0.463		0.405	0.421	0.323	1.27		1.03	1.13	0.866
NCI-H1793	0.382	0.38	0.506	0.394	0.369	0.358		0.318	0.339	0.276	0.28		0.336	0.309	0.173	0.518	0.393	0.549	0.528	0.277
NCI-H1734	0.928	0.779	0.708	0.593	0.487	0.267	0.253	0.29	0.231	0.277	0.435	0.337	0.307	0.286	0.247	0.53	0.417	0.454	0.453	0.356
NCI-H2347	0.835	0.751	0.646	0.6	0.533	0.639		0.542	0.565	0.361	0.612		0.285	0.26	0.182	0.793	0.638	0.646	0.633	0.48
